Like-named read-outs stand apart in the source and are kept apart here. Marks after values point to notes of the source that are not given here.
Assays:
HCT-116 cells [1] = assay: Cell Titer-Glo cytotoxicity assay, HCT-116; assay type: cell-based; conditions: Homo sapiens
Excerpt: (§1) Five serial 1:2 dilutions were made with anhydrous DMSO at 100× the final concentration used in the assay.

NCI-H460 cells [2] = assay: Calcein AM cytotoxicity assay, NCI-H460; assay type: cell-based; conditions: Homo sapiens
Excerpt: as §1

MCF7 cells [3] = assay: Cell Titer-Glo cytotoxicity assay, MCF7; assay type: cell-based, human; conditions: for IC50: Homo sapiens
Excerpt: as §1

Du145 cells [4] = assay: Cell Titer-Glo cytotoxicity assay, Du145; assay type: cell-based; conditions: Homo sapiens
Excerpt: as §1

NCI/ADR RES cells [5] = assay: Cell Titer-Glo cytotoxicity assay, NCI/ADR-RES; assay type: cell-based, human; conditions: for IC50: Homo sapiens, NCI/ADR-RES, 72 h
Excerpt: as §1

Hep3B cells [6] = assay: Cell Titer-Glo cytotoxicity assay, Hep3B; assay type: cell-based; conditions: Homo sapiens, 72 h
Excerpt: as §1

Hep3B cells [7] = assay: Calcein AM cytotoxicity assay, Hep3B; assay type: cell-based; conditions: Homo sapiens, 72 h
Excerpt: as §1

NCI-H460 cells [8] = assay: Cell Titer-Glo cytotoxicity assay, NCI-H460; assay type: cell-based, human
Excerpt: as §1

[9] = test system: NmuMG mouse mammary normal epithelial cells; assay: Calcein AM cytotoxicity assay, NmuMG; assay type: cell-based; conditions: Epithelial cell, 72 h
Excerpt: as §1

SF-268 cells [10] = assay: Calcein AM cytotoxicity assay, SF-268; assay type: cell-based; conditions: Homo sapiens
Excerpt: as §1

Du145 cells [11] = assay: Calcein AM cytotoxicity assay, Du145; assay type: cell-based; conditions: Homo sapiens
Excerpt: as §1

SK-OV-3 cells [12] = assay: Calcein AM cytotoxicity assay, SK-OV-3; assay type: cell-based; conditions: Homo sapiens
Excerpt: as §1

SK-OV-3 cells [13] = assay: Cell Titer-Glo cytotoxicity assay, SK-OV-3; assay type: cell-based; conditions: Homo sapiens
Excerpt: as §1

MCF7 cells [14] = assay: Calcein AM cytotoxicity assay, MCF7; assay type: cell-based; conditions: Homo sapiens
Excerpt: as §1

[15] = test system: NmuMG mouse mammary normal epithelial cells; assay: Cell Titer-Glo cytotoxicity assay, NmuMG; assay type: cell-based; conditions: for IC50: Mus musculus, Epithelial cell, 72 h
Excerpt: as §1

SF-268 cells [16] = assay: Cell Titer-Glo cytotoxicity assay, SF-268; assay type: cell-based; conditions: Homo sapiens
Excerpt: as §1

human cancer cell lines = assay: Cytotoxicity across the panel of human cancer cell lines (average, high-throughput assays); assay type: cell-based; conditions: for IC50: read-out: Cancerous Average IC50 / Average IC50 in Cancer Cell Lines
Excerpt: as §1

NCI/ADR RES cells [17] = assay: Calcein AM cytotoxicity assay, NCI/ADR-RES; assay type: cell-based; conditions: Homo sapiens, 72 h
Excerpt: as §1

HT-29 cells = assay: MTT cytotoxicity assay, HT-29; assay type: cell-based; conditions: Homo sapiens
Excerpt: The IC50 value for each library member represents at least twelve replicates of dose-response experiments conducted over five concentrations. […] In this assay, live cells were distinguished by the intracellular enzymatic activity that converts the cell-permeable molecule MTT to strongly colored formazan crystals, which are retained within live cells and absorb light at 570 nm.
MTT Cytotoxicity Assay. HT-29 cell lines were maintained in RPMI medium 1640 supplemented with 10% (wt/vol) FBS and 1% penicillin-streptomycin (PS) (100 units/mL and 100 μg/mL). Cells were harvested by trypsinization using 0.25% trypsin and 0.1% EDTA and plated at a density of 2,000-5,000 cells per well of each 96-well microtiter plate. Cells were grown for 24 h at 37° C., with 5% CO2/95% air in a humidified incubator to allow cell attachment to occur before compound addition. Library members were stored at −20° C. under desiccating conditions before the assay. Library member stocks (1000×) were prepared in falcon tubes (BD Biosciences). Five dilutions were made with DMSO at 1000× the final concentration used in the assay. The 1000× stocks (3 μL) were diluted with complete culture medium (3 mL). Each plate contained twelve replicates of cells treated with 0.1% DMSO in complete cell culture medium that served as an individual negative control. Library member stocks (1×, 200 μL) were added to aspirated cells and replicated twelve times on each plate. Cells were incubated with the library members for 24 h before optical density reading. Test plates were removed from the incubator and washed once in sterile PBS to remove serum containing library members. Freshly-made 10×MTT solution in sterile PBS (5 mg/mL) was diluted 1:10 in serum-free culture medium and was sterilized using a 0.2 μm filter. Diluted MTT solution (1×, 50 μL) was added to each well and the plates were incubated in the dark for 2 h. Test plates were centrifuged at 1800×g for 5 min at 4° C. using a Beckman GPR centrifuge. MTT solution was removed by aspiration and 100 μL DMSO was added to each well to lyse cells and solubilize formazan crystals. Test plates were incubated in the dark at room temperature for 10 min. Plates were read for optical density at 570 nm.
IC50 Calculations. For each library member, at least three dose-response experiments were conducted on separate plates. […] To calculate IC50, percent inhibitions were plotted as a function of log[concentration] and then fit to a four-parameter logistic model that allowed for a variable Hill slope by using XLFIT 4.1 (ID Business Solutions, Emeryville, Calif.).

HCT-116 cells [18] = assay: Calcein AM cytotoxicity assay, HCT-116; assay type: cell-based; conditions: Homo sapiens
Excerpt: as §1

[19] = HCT-116, Cell Titer-Glo, 72 h, read-out: IC50
[20] = NCI-H460, Calcein AM, 72 h, read-out: IC50
[21] = MCF7, Cell Titer-Glo, 72 h, read-out: IC50
[22] = DU-145, Du145, Cell Titer-Glo, 72 h, read-out: IC50
[23] = Homo sapiens, NCI-H460, Cell Titer-Glo, 72 h, read-out: IC50
[24] = NmuMG, Calcein AM, read-out: IC50
[25] = SF-268, Calcein AM, 72 h, read-out: IC50
[26] = DU-145, Du145, Calcein AM, 72 h, read-out: IC50
[27] = SK-OV-3, Calcein AM, 72 h, read-out: IC50
[28] = SK-OV-3, Cell Titer-Glo, 72 h, read-out: IC50
[29] = MCF7, Calcein AM, 72 h, read-out: IC50
[30] = NmuMG, Cell Titer-Glo, read-out: IC50
[31] = SF-268, Cell Titer-Glo, 72 h, read-out: IC50
[32] = average across eight human cancer cell lines, MTT (HT-29) values excluded
[33] = HT-29, MTT, 24 h, read-out: IC50
[34] = HCT-116, Calcein AM, 72 h, read-out: IC50

CCCCc1ccc(N=C=S)cc1 [Compound 21, 1-butyl-4-isothiocyanatobenzene]
IC50 (HCT-116 cells [1]; [19]): 19.4 µM
IC50 (NCI-H460 cells [2]; [20]): > 50 µM
IC50 (MCF7 cells [3]; [21]): 45.4 µM
IC50 (Du145 cells [4]; [22]): 48 µM
IC50 (NCI/ADR RES cells [5]; Cell Titer-Glo, read-out: IC50): > 50 µM
IC50 (Hep3B cells [6]; Cell Titer-Glo, read-out: IC50): > 50 µM
IC50 (Hep3B cells [7]; Calcein AM, read-out: IC50): > 50 µM
IC50 (NCI-H460 cells [8]; [23]): > 50 µM
IC50 (NCI-H460 cells [8]; NCI-H460, Cell Titer-Glo, 72 h): ^fNon-inhibitory in Hep3B, NCI/ADR RES, NCI-H460
IC50 [9, 24]: 71.9 µM
IC50 (SF-268 cells [10]; [25]): 21.5 µM
IC50 (Du145 cells [11]; [26]): > 50 µM
IC50 (SK-OV-3 cells [12]; [27]): 15.9 µM
IC50 (SK-OV-3 cells [13]; [28]): 31.4 µM
IC50 (MCF7 cells [14]; [29]): 45.8 µM
IC50 [15, 30]: 65.7 µM
IC50 (SF-268 cells [16]; [31]): 32.1 µM
Cancerous Average IC50 / Average IC50 in Cancer Cell Lines (human cancer cell lines; [32]): 35.25^f μM
IC50 (human cancer cell lines; [32]): 35.2 µM
IC50 (NCI/ADR RES cells [17]; Calcein AM, read-out: IC50): > 50 µM
IC50 (HT-29 cells; [33]): > 50 µM
IC50 (HCT-116 cells [18]; [34]): > 50 µM

S=C=NCc1cccnc1 [Compound 22, 3-(isothiocyanatomethyl)pyridine]
IC50 (HCT-116 cells [1]; HCT-116, 72 h): 2.04 ± 0.21 µM
IC50 (NCI-H460 cells [2]; NCI-H460, 72 h): 5.18 µM
IC50 (MCF7 cells [3]; MCF7, 72 h): 2.04 µM
IC50 (Du145 cells [4]; DU-145, 72 h): 2.91 µM
IC50 (NCI/ADR RES cells [5]): 1.18 ± 0.06 µM
fold more potent than L-sulforaphane (NCI/ADR RES cells [5]; NCI/ADR RES cells): ~7.5 fold
fold increase in potency versus 23 (NCI/ADR RES cells [5]; NCI/ADR RES cells, phenyl replaced by 3-pyridine): ≤ 10 fold
IC50 (Hep3B cells [6]): 3 µM
IC50 (Hep3B cells [7]): 3.64 µM
IC50 (NCI-H460 cells [8]; Homo sapiens, NCI-H460, 72 h): 4.51 µM
IC50 [9]: < 12.5 µM
IC50 (SF-268 cells [10]; SF-268, 72 h): 2.68 µM
IC50 (Du145 cells [11]; DU-145, 72 h): < 1.88 µM
IC50 (SK-OV-3 cells [12]; SK-OV-3, 72 h): 2.6 µM
IC50 (SK-OV-3 cells [13]; SK-OV-3, 72 h): 2.21 µM
IC50 (MCF7 cells [14]; MCF7, 72 h): 2.31 µM
IC50 [15]: 26 ± 1.15 µM
fold less potent than L-sulforaphane ([15]; NmuMG cells): ~4 fold
IC50 (SF-268 cells [16]; SF-268, 72 h): 2.46 µM
IC50 (human cancer cell lines; Homo sapiens): 2.54 µM
fold increase in effectiveness relative to L-sulforaphane (human cancer cell lines; potency in NCI/ADR RES and selectivity over NmuMG taken together): ~30 fold
IC50 (NCI/ADR RES cells [17]): 2.27 µM
IC50 (HT-29 cells; HT-29, 24 h): 21.3 µM
IC50 (HCT-116 cells [18]; HCT-116, 72 h): 1.26 µM

S=C=NCc1ccccc1 [Compound 23, 1-(isothiocyanatomethyl)benzene]
IC50 (HCT-116 cells [1]; [19]): 3.19 µM
IC50 (NCI-H460 cells [2]; [20]): 22.9 µM
IC50 (MCF7 cells [3]; [21]): 10.6 µM
IC50 (Du145 cells [4]; [22]): 4.64 µM
IC50 (NCI/ADR RES cells [5]; Cell Titer-Glo, read-out: IC50): 11.5 ± 0.77 µM
IC50 (Hep3B cells [6]; Cell Titer-Glo, read-out: IC50): 9.7 ± 0.37 µM
IC50 (Hep3B cells [7]; Calcein AM, read-out: IC50): 22.5 µM
IC50 (NCI-H460 cells [8]; [23]): 14.5 µM
IC50 [9, 24]: < 12.5 µM
IC50 (SF-268 cells [10]; [25]): 11.5 µM
IC50 (Du145 cells [11]; [26]): 5.37 µM
IC50 (SK-OV-3 cells [12]; [27]): 7.18 µM
IC50 (SK-OV-3 cells [13]; [28]): 8.86 µM
IC50 (MCF7 cells [14]; [29]): 16 µM
IC50 [15, 30]: 15.4 µM
IC50 (SF-268 cells [16]; [31]): 8.27 µM
fold increase in potency versus fully-saturated 18 (human cancer cell lines; average IC50 compared): > 3 fold
IC50 (human cancer cell lines; [32]): 9.47 µM
IC50 (NCI/ADR RES cells [17]; Calcein AM, read-out: IC50): 15.5 µM
IC50 (HT-29 cells; [33]): 31.4 µM
IC50 (HCT-116 cells [18]; [34]): 11.5 µM

COc1cccc(CN=C=S)c1OC [Compound 27]
IC50 (HCT-116 cells [1]; [19]): 6.72 µM
IC50 (NCI-H460 cells [2]; [20]): 15.8 µM
IC50 (MCF7 cells [3]; [21]): 3.22 µM
IC50 (Du145 cells [4]; [22]): 8.24 µM
IC50 (NCI/ADR RES cells [5]; Cell Titer-Glo, read-out: IC50): 20.8 µM
IC50 (Hep3B cells [6]; Cell Titer-Glo, read-out: IC50): 4.87 µM
IC50 (Hep3B cells [7]; Calcein AM, read-out: IC50): 1.37 µM
IC50 (NCI-H460 cells [8]; [23]): 16.1 µM
IC50 [9, 24]: 5.59 µM
IC50 (SF-268 cells [10]; [25]): 4.26 µM
IC50 (Du145 cells [11]; [26]): 2.46 µM
IC50 (SK-OV-3 cells [12]; [27]): 2.55 µM
IC50 (SK-OV-3 cells [13]; [28]): 5.47 µM
IC50 (MCF7 cells [14]; [29]): 5.81 µM
IC50 [15, 30]: 3.78 µM
IC50 (SF-268 cells [16]; [31]): 3.21 µM
IC50 (NCI/ADR RES cells [17]; Calcein AM, read-out: IC50): 5.61 µM
IC50 (HCT-116 cells [18]; [34]): < 1.88 µM

S=C=N[C@@H]1CCCc2ccccc21 [Compound 32, (R)-1-isothiocyanato-1,2,3,4-tetrahydronaphthalene]
IC50 (HCT-116 cells [1]; [19]): 9.05 µM
IC50 (NCI-H460 cells [2]; [20]): 18.7 µM
IC50 (MCF7 cells [3]; [21]): 7.83 µM
IC50 (Du145 cells [4]; [22]): 8.66 µM
IC50 (Hep3B cells [6]; Cell Titer-Glo, read-out: IC50): 3.59 ± 0.16 µM
IC50 (Hep3B cells [7]; Calcein AM, read-out: IC50): < 3.13 µM
IC50 (NCI-H460 cells [8]; [23]): 13.3 µM
IC50 [9, 24]: 17.2 µM
IC50 (SF-268 cells [10]; [25]): 5.75 µM
IC50 (Du145 cells [11]; [26]): 5.27 µM
IC50 (SK-OV-3 cells [12]; [27]): 5.18 µM
IC50 (SK-OV-3 cells [13]; [28]): 7.74 µM
IC50 (MCF7 cells [14]; [29]): 3.88 µM
IC50 [15, 30]: 17 µM
IC50 (SF-268 cells [16]; [31]): 7.73 µM
Cancerous Average IC50 / Average IC50 in Cancer Cell Lines (human cancer cell lines; [32]): 8.27^g μM
IC50 (human cancer cell lines; [32]): 8.27 µM
fold more potent than 23 (human cancer cell lines; in general, across cell lines): ~1.2 fold
fold more potent than the S-enantiomer 31 (human cancer cell lines; in general, across cell lines): approximately 2.0 fold
IC50 (HT-29 cells; [33]): 20.4 µM
IC50 (HCT-116 cells [18]; [34]): 12.5 µM

C[S@+]([O-])CCCCN=C=S [D-sulforaphane]
% bioactive (relative to L-sulforaphane) (MCF7 cells [3]; MCF7, inferred from racemate 13 versus 2): 0%
% bioactive (relative to L-sulforaphane) (NCI/ADR RES cells [5]; NCI/ADR RES, inferred from racemate 13 versus 2): 9%
% bioactive (relative to L-sulforaphane) (NCI-H460 cells [8]; NCI-H460, inferred from racemate 13 versus 2): 14%

From patent US20080312164A1 (priority 2006, published 2008)
